Assay results reported in US8569007B2, “Method for reducing the appearance of false positive bands in SDS-page analysis of proteolytic digestion of a sample” (Merck Sharp & Dohme Corp., priority 2006, dated 2013).

Test system: thiol-protease
Conditions: 100 μM E-64; anti-IGF1R antibody substrate; overnight at room temperature; reducing SDS-PAGE (FIG. 5)
Experimental: Gels containing 4-20% polyacryamide were used for reducing SDS-PAGE. Recipes for buffers were as follows: • 1.5M Tris pH 8.8: Dissolve 90.73 g Tris base in 400 ml DI H2O. pH to 8.8 with Hydrochloric Acid. Bring to volume of 500 ml with DI H2O, Store at 4° C. (This is one of the components used to make pH 8.8 Sample Buffer—below) • pH 8.8 Sample Buffer: Combine the following: 228 ml of DI H2O, 50 ml Glycerol, 50 ml 1.5M Tris pH 8.8, 50 ml 10% SDS solution, and 10 ml 0.05% Bromophenol Blue. Store at 4° C. • 2× Reducing Sample Buffer: Prepare 3% by volume 2-Mercaptoethanol in pH 8.8 Sample Buffer. Prepare fresh prior to use.
The buffers were combined with the samples in equal volumes and allowed to sit overnight at room temperature before boiling. This increases the sensitivity of the assay for protease activity. The samples were then boiled directly before submitting for SDS-PAGE.
E-64 was dissolved in DMSO and EDTA was dissolved in sterile distilled water. Samples were allowed to incubate overnight at room temperature. Samples were then combined in equal parts with anti-IGF1R drug substance to yield a final concentration of 0.5 mg/ml antibody. Reducing buffer was added in equal parts to the samples containing antibody. Following overnight incubation, these samples were then loaded onto gels for reducing SDS-PAGE for a final load of 10-12 μg of antibody. […]

SMILES: CC(C)C[C@H](NC(=O)[C@H]1O[C@@H]1C(=O)O)C(=O)NCCCCN=C(N)N (relative stereo) [E-64, trans-epoxy-succinyl-L-leucylamido-(4-guanidino)butane]
- inhibition of active thiol-protease in 1615 CHO medium supplement: inhibited
